In EP0373994A1, “Mutants of simian transforming growth factor-beta 1” (ONCOGEN LIMITED PARTNERSHIP, priority 1988, dated 1990):
Like-named read-outs stand apart in the source and are kept apart here.

Experiments:
[1] = system: TGF-β1 secretion by CHO cell line TGF-β3-2000 clone 17; experiment: Secretion of TGF-β1 by transfected CHO cells treated with glycosylation inhibitors (pulse-chase, densitometry); assay type: cell-based, Chinese hamster
[2] = system: proteolytic processing of TGF-β1 precursor in TGF-β3-2000 clone 17 CHO cells; experiment: Proteolytic processing of TGF-β1 precursor in CHO cells treated with weak bases or ionophore; assay type: cell-based, Chinese hamster
[3] = target: T1, IGF-II/man6P receptor on adipocytes (Rattus norvegicus, UniProt G3V824); experiment: Binding to rat adipocytes with or without insulin pretreatment; conditions: 3mM, read-out: inhibition of TGF-β1 precursor binding
T1 construct: from tissue; host or cells: primary adipocytes from epididymal fat pads of male Sprague-Dawley rats
Method: The epididymal fat pads from male Sprague-Dawley rats (180-220 g) were excised, minced, and collagenase-digested as described (Rodberg, 1964, J. Biol. Chem. 239:375-380). The isolated adipocytes were pre-incubated with or without 1 µM insulin for 10 min at 37°C in 0.7 ml Krebs-Ringer buffer (107 mM NaCl, 5mM KCl, 3mM CaCl₂, 1mM MgSO₄, 7 mM NaHCO₃, 10 mM glucose, and 20 mM Hepes, pH 7.8) with 3% bovine serum albumin. The indicated labeled ligand was added and the incubations continued for 45 minutes at 37°. The cells were separated from the media by centrifugation through silicon oil and the radioactivity in the cell layer counted.

[4] = target: human mannose 6-phosphate/IGF-II receptor (Homo sapiens, UniProt P11717); experiment: Solid phase receptor assay, binding of 125I-TGF-β1 precursor to purified receptor
[5] = target: T2, CHO cells overexpressing the human IGF-II/man6P receptor (Homo sapiens, UniProt P11717); experiment: Binding to CHO cells overexpressing the receptor
T2 construct: expressed in transfected cells; host or cells: CHO cells
Method: Binding and internalization studies with transfected and control CHO cells were performed in 24-well culture plates. Confluent cells were washed and incubated for 5 hours at 4°C with the labeled ligand in 0.3 ml of binding buffer (100 mM Hepes, pH 7.6, 120 mM NaCl, 1.2 mM MgSO₄, 15 mM sodium acetate, 5 mM glucose). Cells were then washed twice, lysed with 0.1% sodium docecyl sulfate and counted. For the internalization studies, labeled ligand was added to the cells in serum-free Ham's F-12 medium containing 0.1% bovine serum albumin and 20 mM Hepes, pH 7.6. After the indicated periods of time at 37°C, the cells were put on ice and washed with pre-cooled Hepes buffered saline containing 0.3 mM CaCl₂. […] The cells were then washed, solubilized, and counted as above.

T2 sequence (P11717 41-2491): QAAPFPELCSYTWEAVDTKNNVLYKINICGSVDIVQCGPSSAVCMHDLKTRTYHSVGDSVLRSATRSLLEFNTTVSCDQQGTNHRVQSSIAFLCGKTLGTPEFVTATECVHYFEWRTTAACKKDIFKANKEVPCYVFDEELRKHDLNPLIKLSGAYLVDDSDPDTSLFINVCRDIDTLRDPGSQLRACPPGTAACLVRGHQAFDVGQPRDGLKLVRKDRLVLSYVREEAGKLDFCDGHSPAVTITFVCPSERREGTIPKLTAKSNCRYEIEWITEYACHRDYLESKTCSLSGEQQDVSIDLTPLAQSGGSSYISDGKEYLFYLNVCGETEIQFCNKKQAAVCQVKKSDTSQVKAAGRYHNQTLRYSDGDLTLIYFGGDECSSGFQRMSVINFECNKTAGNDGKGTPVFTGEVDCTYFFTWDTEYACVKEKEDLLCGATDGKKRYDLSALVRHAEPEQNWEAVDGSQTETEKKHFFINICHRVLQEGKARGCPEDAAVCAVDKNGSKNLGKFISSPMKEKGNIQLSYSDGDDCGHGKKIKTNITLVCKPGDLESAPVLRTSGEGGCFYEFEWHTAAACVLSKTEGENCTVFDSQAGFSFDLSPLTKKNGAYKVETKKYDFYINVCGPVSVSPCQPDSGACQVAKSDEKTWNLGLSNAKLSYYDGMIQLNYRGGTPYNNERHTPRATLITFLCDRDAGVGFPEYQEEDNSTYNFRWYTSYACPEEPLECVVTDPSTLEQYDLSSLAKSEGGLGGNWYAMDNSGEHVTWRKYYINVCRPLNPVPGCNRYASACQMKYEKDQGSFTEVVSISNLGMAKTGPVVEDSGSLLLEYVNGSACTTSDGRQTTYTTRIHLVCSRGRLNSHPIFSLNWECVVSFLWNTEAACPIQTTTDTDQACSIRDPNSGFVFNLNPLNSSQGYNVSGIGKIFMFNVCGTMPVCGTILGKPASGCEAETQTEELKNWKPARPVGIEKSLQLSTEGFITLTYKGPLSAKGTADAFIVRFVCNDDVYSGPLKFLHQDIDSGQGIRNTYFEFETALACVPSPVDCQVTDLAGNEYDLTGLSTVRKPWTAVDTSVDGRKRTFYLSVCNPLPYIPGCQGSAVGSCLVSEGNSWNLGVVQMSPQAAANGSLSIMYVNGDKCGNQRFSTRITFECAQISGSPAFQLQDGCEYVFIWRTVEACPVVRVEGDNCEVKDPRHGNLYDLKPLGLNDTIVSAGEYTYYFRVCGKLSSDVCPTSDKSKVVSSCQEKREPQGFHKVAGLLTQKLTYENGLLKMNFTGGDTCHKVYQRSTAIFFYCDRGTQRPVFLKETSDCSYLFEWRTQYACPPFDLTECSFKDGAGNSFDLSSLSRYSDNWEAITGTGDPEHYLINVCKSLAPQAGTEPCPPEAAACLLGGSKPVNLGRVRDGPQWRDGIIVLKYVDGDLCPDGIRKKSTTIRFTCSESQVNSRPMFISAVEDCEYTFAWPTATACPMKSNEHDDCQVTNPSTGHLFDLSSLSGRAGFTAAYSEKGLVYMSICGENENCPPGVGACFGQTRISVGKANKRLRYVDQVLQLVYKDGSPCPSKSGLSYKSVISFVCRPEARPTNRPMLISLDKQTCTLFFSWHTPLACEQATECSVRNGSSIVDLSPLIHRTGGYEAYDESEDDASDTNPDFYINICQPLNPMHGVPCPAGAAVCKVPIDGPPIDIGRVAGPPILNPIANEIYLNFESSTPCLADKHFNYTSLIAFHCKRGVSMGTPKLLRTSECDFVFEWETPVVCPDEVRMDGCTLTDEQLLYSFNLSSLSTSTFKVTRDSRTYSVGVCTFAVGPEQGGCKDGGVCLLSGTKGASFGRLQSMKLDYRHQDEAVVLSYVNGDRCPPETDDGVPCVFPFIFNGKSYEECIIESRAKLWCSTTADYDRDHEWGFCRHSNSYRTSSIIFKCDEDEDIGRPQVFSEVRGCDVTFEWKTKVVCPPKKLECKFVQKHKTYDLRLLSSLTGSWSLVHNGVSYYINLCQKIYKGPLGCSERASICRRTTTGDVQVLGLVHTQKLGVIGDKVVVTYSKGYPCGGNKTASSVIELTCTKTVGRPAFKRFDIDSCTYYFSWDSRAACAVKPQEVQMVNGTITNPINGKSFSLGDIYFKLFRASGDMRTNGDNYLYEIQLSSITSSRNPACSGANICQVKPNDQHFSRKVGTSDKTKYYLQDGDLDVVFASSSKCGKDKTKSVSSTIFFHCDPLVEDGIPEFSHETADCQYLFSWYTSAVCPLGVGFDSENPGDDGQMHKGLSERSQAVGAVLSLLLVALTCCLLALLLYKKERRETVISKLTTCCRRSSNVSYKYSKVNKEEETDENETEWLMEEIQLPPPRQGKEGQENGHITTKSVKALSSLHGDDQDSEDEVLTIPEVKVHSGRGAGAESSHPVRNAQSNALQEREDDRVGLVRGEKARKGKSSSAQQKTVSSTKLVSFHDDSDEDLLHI
human mannose 6-phosphate/IGF-II receptor, sequence (P11717 41-2491): as above
T1 sequence (G3V824 36-2481): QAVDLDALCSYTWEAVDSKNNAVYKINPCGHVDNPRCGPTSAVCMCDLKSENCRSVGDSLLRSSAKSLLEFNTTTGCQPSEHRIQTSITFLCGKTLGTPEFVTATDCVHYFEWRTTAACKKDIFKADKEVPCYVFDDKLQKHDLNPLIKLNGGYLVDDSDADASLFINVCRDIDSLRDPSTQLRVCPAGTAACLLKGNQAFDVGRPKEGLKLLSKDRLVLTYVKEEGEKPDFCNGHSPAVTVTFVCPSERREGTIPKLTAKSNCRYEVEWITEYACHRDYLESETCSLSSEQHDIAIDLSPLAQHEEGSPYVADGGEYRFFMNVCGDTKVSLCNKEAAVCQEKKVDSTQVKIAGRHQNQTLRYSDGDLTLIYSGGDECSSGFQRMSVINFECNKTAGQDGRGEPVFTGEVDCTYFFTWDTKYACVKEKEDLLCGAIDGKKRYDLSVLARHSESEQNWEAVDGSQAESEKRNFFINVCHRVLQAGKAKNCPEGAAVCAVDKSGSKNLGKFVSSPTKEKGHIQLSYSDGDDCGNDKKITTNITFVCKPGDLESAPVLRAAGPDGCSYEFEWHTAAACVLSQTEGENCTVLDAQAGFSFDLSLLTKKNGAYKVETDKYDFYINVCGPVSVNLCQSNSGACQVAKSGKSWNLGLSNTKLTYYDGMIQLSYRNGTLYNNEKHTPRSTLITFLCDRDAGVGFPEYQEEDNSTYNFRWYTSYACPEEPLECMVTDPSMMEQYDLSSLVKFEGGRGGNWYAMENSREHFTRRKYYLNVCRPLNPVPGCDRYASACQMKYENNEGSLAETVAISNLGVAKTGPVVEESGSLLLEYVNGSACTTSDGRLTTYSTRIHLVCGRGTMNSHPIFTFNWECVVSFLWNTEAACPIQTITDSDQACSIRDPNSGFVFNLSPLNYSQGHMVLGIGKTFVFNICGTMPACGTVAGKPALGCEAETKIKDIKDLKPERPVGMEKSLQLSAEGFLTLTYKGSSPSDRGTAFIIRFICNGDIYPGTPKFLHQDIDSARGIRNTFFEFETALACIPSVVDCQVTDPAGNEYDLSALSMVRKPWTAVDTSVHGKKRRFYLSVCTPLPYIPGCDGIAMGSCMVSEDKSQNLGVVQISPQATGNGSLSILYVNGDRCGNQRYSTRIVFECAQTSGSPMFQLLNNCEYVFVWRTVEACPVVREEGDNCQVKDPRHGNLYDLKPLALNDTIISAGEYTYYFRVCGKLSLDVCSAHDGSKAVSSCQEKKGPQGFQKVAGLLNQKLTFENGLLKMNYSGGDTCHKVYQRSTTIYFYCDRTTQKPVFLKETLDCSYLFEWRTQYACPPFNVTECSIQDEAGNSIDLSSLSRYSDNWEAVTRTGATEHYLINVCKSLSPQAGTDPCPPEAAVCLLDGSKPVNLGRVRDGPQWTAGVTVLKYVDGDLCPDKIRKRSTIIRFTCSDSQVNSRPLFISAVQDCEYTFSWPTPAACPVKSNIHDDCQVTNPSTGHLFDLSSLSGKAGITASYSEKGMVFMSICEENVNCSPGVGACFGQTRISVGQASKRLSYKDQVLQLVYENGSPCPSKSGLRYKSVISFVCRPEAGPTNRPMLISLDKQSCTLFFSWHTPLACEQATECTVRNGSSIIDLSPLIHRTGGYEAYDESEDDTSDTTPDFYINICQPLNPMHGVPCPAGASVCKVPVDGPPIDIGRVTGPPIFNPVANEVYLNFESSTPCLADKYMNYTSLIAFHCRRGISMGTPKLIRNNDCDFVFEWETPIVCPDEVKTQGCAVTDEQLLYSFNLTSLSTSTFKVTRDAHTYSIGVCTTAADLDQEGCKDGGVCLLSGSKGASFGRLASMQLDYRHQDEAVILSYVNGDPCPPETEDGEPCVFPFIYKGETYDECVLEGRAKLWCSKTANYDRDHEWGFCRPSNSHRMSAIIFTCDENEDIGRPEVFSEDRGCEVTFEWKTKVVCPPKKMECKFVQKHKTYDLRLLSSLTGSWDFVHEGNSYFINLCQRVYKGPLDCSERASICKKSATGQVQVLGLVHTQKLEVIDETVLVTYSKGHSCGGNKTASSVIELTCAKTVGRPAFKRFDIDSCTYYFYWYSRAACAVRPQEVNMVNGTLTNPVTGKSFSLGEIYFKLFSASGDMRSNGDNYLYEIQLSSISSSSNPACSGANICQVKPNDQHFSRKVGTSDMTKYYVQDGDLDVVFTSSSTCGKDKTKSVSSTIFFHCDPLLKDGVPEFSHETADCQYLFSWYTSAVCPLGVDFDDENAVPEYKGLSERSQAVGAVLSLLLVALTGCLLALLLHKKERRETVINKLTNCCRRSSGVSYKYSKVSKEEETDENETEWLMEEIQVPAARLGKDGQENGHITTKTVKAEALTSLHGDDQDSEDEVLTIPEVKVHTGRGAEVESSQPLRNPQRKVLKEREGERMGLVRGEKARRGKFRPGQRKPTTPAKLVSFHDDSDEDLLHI

`O[C@H]1[C@H]2[C@H](O)CCCN2C[C@H]1O` [SW, swainsonine] was tested. Which activation at 230 µM ([1]; Cricetulus griseus, CHO, 6 h, read-out: increase in levels of secreted recombinant proteins) did it give?
The activation at 230 µM was ~30%.

`OC[C@H]1NC[C@H](O)[C@@H](O)[C@@H]1O` [dN, 1-deoxynojirimycin] was tested. Which activity at 4000 µM ([1]; Cricetulus griseus, CHO, 6 h chase, 6 µM TU, 0.52 mM CA, 4 mM dN, read-out: level of secretion relative to control cells) did it give?
The activity at 4000 µM was 5 to 15%.

tunicamycin was tested. Which “level of secretion relative to control cells” value ([1]; 6 h chase, 6 µM TU, 0.52 mM CA, 4 mM dN) did it give?
Its value is 5-15%.

For ammonium chloride, which “cleavage efficiency (proteolytic processing) relative to control values” ([2]; 6 h chase, 10mM ammonium chloride, 200 µM chloroquine, 1 µM monensin) is on record?
Its value is “about 70%”.

`OC[C@H]1NC[C@@H](O)[C@@H](O)[C@@H]1O` [dMM, 1-deoxymannojirimycin] was tested. Which activation at 4000 µM ([1]; Cricetulus griseus, CHO, 6 h chase, 0.23 mM SW, 4 mM dMM, read-out: increase in levels of secreted recombinant proteins) did it give?
Its activation at 4000 µM is ~30%.

How did the inhibition at 3000 µM ([3]; control adipocytes) turn out when `O=P(O)(O)OC[C@H]1OC(O)[C@@H](O)[C@@H](O)[C@@H]1O` (stereo partly drawn) [mannose 6-phosphate] was run?
Its inhibition at 3000 µM is 65%.

And the inhibition at 3000 µM ([3]; insulin-treated adipocytes)?
Its inhibition at 3000 µM is 81%.

And the inhibition at 50 µM ([4]; 50µM competitor, read-out: inhibition of 125I-labeled TGF-β1 precursor binding to purified receptor)?
The inhibition at 50 µM was 90%.

And the IC50 ([4]; read-out: half-maximal inhibition of binding to the isolated receptor)?
The IC50 was 8 µM.

What about the IC50 ([5]; FIG. 37A, read-out: half-maximal inhibition of TGF-β1 precursor binding to transfected CHO cells) of the same compound?
The IC50 was 10 µM.

What about the IC50 ([5]; read-out: half-maximal inhibition of rTGF-β1 precursor binding to transfected CHO cells) of the same compound?
Its IC50 is 10 µM.

Which “times less effective than man6P at inhibiting binding of the TGF-β1 precursor” value ([5]; FIG. 37A) does the source give for `O=P(O)(O)OC1O[C@H](CO)[C@@H](O)[C@H](O)[C@@H]1O` (stereo partly drawn) [Mannose 1-phosphate, mannose 1-phosphate] here?
Its value is “at least 1,000 times”.

With `CC[C@@]1([C@@H]2O[C@@H]([C@H]3O[C@@](O)(CO)[C@H](C)C[C@@H]3C)C[C@@H]2C)CC[C@H]([C@]2(C)CC[C@]3(C[C@H](O)[C@@H](C)[C@@H]([C@@H](C)[C@@H](OC)[C@H](C)C(=O)O)O3)O2)O1` [monensin] as the compound, how does the “cleavage efficiency (proteolytic processing) relative to control values” [2] read?
Its value is ~20%.

`O[C@H]1[C@H](O)[C@@H](O)CN2CC[C@H](O)[C@H]12` [CA, castanospermine] was tested. Which activity at 520 µM ([1]; Cricetulus griseus, CHO, 6 h, read-out: level of secretion relative to control cells) did it give?
Its activity at 520 µM is 5 to 15%.

Which activity at 200 µM ([2]; Cricetulus griseus, CHO, 6 h chase, 10mM ammonium chloride, 200 µM chloroquine, 1 µM monensin, read-out: cleavage efficiency (proteolytic processing) relative to control values) does the source give for `CCN(CC)CCCC(C)Nc1ccnc2cc(Cl)ccc12` (stereo not drawn) [Chloroquine, Chloroquine diphosphate] here?
The activity at 200 µM was ~20%.
